Laboratory results from PubChem BioAssay (NCI).
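48-hour exposure; five concentrations; linearly interpolated endpoints. Definition used: TGI = concentration required for complete inhibition of growth.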

How the values were obtained:
Assay in all cases: NCI-60 cell line screen, 48 h
[1] = system: BT-549 breast
[2] = system: MOLT-4 leukemia
[3] = system: HOP-92 NSCLC
[4] = system: EKVX NSCLC
[5] = system: SK-OV-3 ovarian
[6] = system: M14 melanoma
[7] = system: 786-0 renal
[8] = system: OVCAR-3 ovarian
[9] = system: SF-295 CNS
[10] = system: LOX IMVI melanoma
[11] = system: NCI-H226 lung
[12] = system: HT29 colon
[13] = system: MDA-MB-231 breast
[14] = system: IGROV1 ovarian
[15] = system: HCC-2998 colon
[16] = system: PC-3 prostate
[17] = system: NCI-H460 lung
[18] = system: A498 renal
[19] = system: SNB-75 CNS
[20] = system: SF-268 CNS
[21] = system: SK-MEL-28 melanoma
[22] = system: CAKI-1 renal
[23] = system: MALME-3M melanoma
[24] = system: OVCAR-8 ovarian
[25] = system: COLO 205 colon
[26] = system: HCT-15 colon
[27] = system: MCF7 breast
[28] = system: DU-145 prostate
[29] = system: NCI-H522 lung
[30] = system: U251 CNS
[31] = system: HCT-116 colon
[32] = system: KM12 colon
[33] = system: SK-MEL-5 melanoma
[34] = system: RPMI-8226 leukemia
[35] = system: SK-MEL-2 melanoma
[36] = system: K-562 leukemia
[37] = system: HL-60(TB) leukemia
[38] = system: TK-10 renal
[39] = system: NCI-H23 lung
[40] = system: A549 NSCLC
[41] = system: ACHN renal
[42] = system: OVCAR-5 ovarian
[43] = system: CCRF-CEM leukemia
[44] = system: SF-539 CNS
[45] = system: NCI/ADR-RES ovarian
[46] = system: UO-31 renal
[47] = system: HS 578T breast
[48] = system: SN12C renal
[49] = system: SNB-19 CNS
[50] = system: MDA-MB-435
[51] = system: T-47D breast
[52] = system: RXF 393 renal
[53] = system: SW-620 colon
[54] = system: MDA-N
[55] = system: HOP-62 NSCLC
[56] = system: UACC-62 melanoma
[57] = system: SR leukemia
[58] = system: UACC-257 melanoma
[59] = system: KM20L2 colon
[60] = system: M19-MEL melanoma
[61] = system: SNB-78 CNS
[62] = system: OVCAR-4 ovarian
[63] = system: LXFL 529 NSCLC
[64] = system: DMS 114 small cell lung

`COC(=O)NC(Nc1ccc(C)cc1)(C(F)(F)F)C(F)(F)F` was tested, and the TGI [1] was over 100 µM, the TGI [2] was over 100 µM and the TGI [3] was over 100 µM. It also gave a TGI [4] of over 100 µM, a TGI [5] of over 100 µM and a TGI [6] of over 100 µM. For the same molecule, the TGI [7] was over 100 µM, the TGI [8] was over 100 µM and the TGI [9] was over 100 µM. For the same molecule, the TGI [10] was over 100 µM, the TGI [11] was over 100 µM and the TGI [12] was over 100 µM. It also gave a TGI [13] of over 100 µM, a TGI [14] of over 100 µM and a TGI [15] of over 100 µM. It also gave a TGI [16] of over 100 µM, a TGI [17] of over 100 µM and a TGI [18] of over 100 µM. The TGI [19] was over 100 µM, the TGI [20] was over 100 µM and the TGI [21] was over 100 µM. It also gave a TGI [22] of over 100 µM, a TGI [23] of over 100 µM and a TGI [24] of over 100 µM. The TGI [25] was over 100 µM, the TGI [26] was over 100 µM and the TGI [27] was over 100 µM. The TGI [28] was over 100 µM, the TGI [29] was over 100 µM and the TGI [30] was over 100 µM. For the same molecule, the TGI [31] was over 100 µM, the TGI [32] was over 100 µM and the TGI [33] was over 100 µM. It also gave a TGI [34] of over 100 µM, a TGI [35] of over 100 µM and a TGI [36] of over 100 µM. The TGI [37] was over 100 µM, the TGI [38] was over 100 µM and the TGI [39] was over 100 µM. It also gave a TGI [40] of over 100 µM, a TGI [41] of over 100 µM and a TGI [42] of over 100 µM. For the same molecule, the TGI [43] was over 100 µM, the TGI [44] was over 100 µM and the TGI [45] was over 100 µM. It also gave a TGI [46] of over 100 µM, a TGI [47] of over 100 µM and a TGI [48] of over 100 µM. It also gave a TGI [49] of over 100 µM, a TGI [50] of over 100 µM and a TGI [51] of over 100 µM. The TGI [52] was 93.9 µM, the TGI [53] was over 100 µM and the TGI [54] was over 100 µM. For the same molecule, the TGI [55] was over 100 µM, the TGI [56] was over 100 µM and the TGI [57] was over 100 µM. It also gave a TGI [58] of over 100 µM.

For `CCO[C@@H]1OC(=O)[C@](C)(C(C)=O)[C@@H]1C`, the TGI [2] was over 100 µM, the TGI [3] was over 100 µM and the TGI [5] was over 100 µM. It also gave a TGI [6] of over 100 µM, a TGI [8] of over 100 µM and a TGI [9] of over 100 µM. The TGI [12] was over 100 µM, the TGI [14] was over 100 µM and the TGI [17] was over 100 µM. The TGI [18] was over 100 µM, the TGI [19] was 98.4 µM and the TGI [20] was 67.8 µM. It also gave a TGI [21] of over 100 µM, a TGI [59] of over 100 µM and a TGI [25] of over 100 µM. It also gave a TGI [60] of over 100 µM, a TGI [29] of over 100 µM and a TGI [30] of over 100 µM. It also gave a TGI [32] of over 100 µM, a TGI [34] of over 100 µM and a TGI [35] of over 100 µM. For the same molecule, the TGI [36] was over 100 µM, the TGI [37] was 79.6 µM and the TGI [61] was over 100 µM. It also gave a TGI [39] of 60.1 µM, a TGI [41] of over 100 µM and a TGI [42] of over 100 µM. The TGI [62] was over 100 µM, the TGI [43] was 89.5 µM and the TGI [44] was over 100 µM. The TGI [46] was over 100 µM, the TGI [63] was over 100 µM and the TGI [49] was over 100 µM. The TGI [64] was over 100 µM, the TGI [52] was over 100 µM and the TGI [55] was over 100 µM. It also gave a TGI [56] of over 100 µM, a TGI [57] of over 100 µM and a TGI [58] of over 100 µM.

`CCCC(CC)c1cc(O)c(O)cc1C(CC)CCC` (stereo unspecified) gave a TGI [1] of over 10 µM, a TGI [2] of over 10 µM and a TGI [3] of over 10 µM. For the same molecule, the TGI [4] was over 10 µM, the TGI [5] was over 10 µM and the TGI [6] was over 10 µM. For the same molecule, the TGI [7] was over 10 µM, the TGI [8] was over 10 µM and the TGI [9] was over 10 µM. The TGI [10] was over 10 µM, the TGI [11] was over 10 µM and the TGI [12] was over 10 µM. The TGI [13] was over 10 µM, the TGI [14] was over 10 µM and the TGI [15] was over 10 µM. It also gave a TGI [16] of over 10 µM, a TGI [17] of over 10 µM and a TGI [18] of over 10 µM. The TGI [19] was over 10 µM, the TGI [20] was over 10 µM and the TGI [21] was over 10 µM. The TGI [22] was over 10 µM, the TGI [23] was over 10 µM and the TGI [24] was over 10 µM. For the same molecule, the TGI [25] was over 10 µM, the TGI [26] was over 10 µM and the TGI [27] was over 10 µM. For the same molecule, the TGI [28] was over 10 µM, the TGI [29] was over 10 µM and the TGI [30] was over 10 µM. It also gave a TGI [31] of over 10 µM, a TGI [32] of over 10 µM and a TGI [33] of over 10 µM. It also gave a TGI [34] of over 10 µM, a TGI [35] of over 10 µM and a TGI [36] of over 10 µM. The TGI [37] was over 10 µM, the TGI [38] was over 10 µM and the TGI [39] was over 10 µM. For the same molecule, the TGI [40] was over 10 µM, the TGI [41] was over 10 µM and the TGI [42] was over 10 µM. The TGI [62] was over 10 µM, the TGI [43] was over 10 µM and the TGI [44] was over 10 µM. It also gave a TGI [45] of over 10 µM, a TGI [46] of over 10 µM and a TGI [47] of over 10 µM. The TGI [48] was over 10 µM, the TGI [49] was over 10 µM and the TGI [50] was over 10 µM. The TGI [51] was over 10 µM, the TGI [52] was over 10 µM and the TGI [53] was over 10 µM. The TGI [54] was over 10 µM, the TGI [55] was over 10 µM and the TGI [56] was over 10 µM. It also gave a TGI [57] of over 10 µM and a TGI [58] of over 10 µM.
